Where two headings read alike, the source gives them in different places.
Key:
[1] = system: ARN8 cells; assay: Propidium iodide flow cytometry (cell cycle); type: cell-based, human; conditions: 48 h; for Effect on cell cycle distribution / cell death: 10 μM tenovins 1 and 33 or 200 nM brequinar; for Effect of uridine or OA on the compound's cell cycle effect: 10 μM, 100 μM uridine or 1 mM OA, not with DHO
Procedure: ARN8 cells were seeded at 30,000 per well, respectively, in 6-well plates and incubated for 24 h. All compounds were diluted to 10× stocks in fully supplemented growth medium. Cells were incubated with the compounds for 48 h. Cell culture medium was removed and placed into Falcon tubes. Wells were washed twice with 1× PBS with the washes saved in the Falcon tubes to harvest floating dead cells. Cells remaining in the wells were trypsinized with 200 μl of 1× trypsin/EDTA (Sigma–Aldrich #T4174). Following detachment, fresh growth medium was added to each well, and the contents were removed and placed in the relevant tubes. Any remaining cells in the plate were then gathered by washing twice with 2 ml of 1× PBS with the washes saved and added to the relevant tubes. The tubes were centrifuged at 500 × g for 5 min. Cell pellets were washed twice with 1× PBS. The pellets were resuspended in 1 ml of 1× PBS and added dropwise to 3 ml of 99.9% ethanol while vortex mixing at high speed. Cells were then fixed at –20 °C for 24 h. Following fixation, cells were pelleted at 1390 × g for 5 min. The cells were washed three times with 2 ml of 1× PBS containing 3% FBS with centrifugation at 1390 × g between washes. Cells were resuspended in 0.5 ml of PBS containing 10 μg of propidium iodide (Invitrogen #P3566) and 50 μg of RNase A (Sigma–Aldrich #R4642) and incubated on ice in the dark for 10 min. Flow cytometry was performed using a BD Biosciences FACScan or FACSCalibur with 10,000 events counted within the gating region.

[2] = system: U2OS or ARN8 cells; assay: Uridine uptake assay ([3H]uridine, scintillation counting); type: cell-based, human; conditions: 5 μM
Procedure: 100,000 (24-h assay) or 200,000 (15-min assay) U2OS or ARN8 cells were seeded per well in 6-well plates in 2 ml of fully supplemented culture medium as described above. 24 h postseeding, medium was removed, and cells were treated with the indicated compounds for either 15 min or 24 h in 2 ml of FBS-free medium supplemented with serum replacement 3 (Sigma–Aldrich #S2640). At the end of the treatment, an extra well of each treatment was harvested in 100 μl of 1× LDS (62.5 mM Tris-HCl, pH 6.8, 10% glycerol, 1% LDS) for quantification of protein levels to determine the level of cell death after 24 h for normalization with protein concentration determined by the Bio-Rad DC protein assay (Bio-Rad #5000111). [^3H]Uridine (PerkinElmer Life Sciences #NET367001MC) was prepared in serum replacement medium to a final emission of 3.65 μCi ml^−1 and added to cells for 10 min. Following 10 min, the cells were washed with four quick changes of 1 mM unlabeled uridine prepared in ice-cold transport buffer (20 mM Tris-HCl, pH 7.4, 130 mM NaCl, 3 mM K2HPO4, 1 mM MgCl2, 5 mM glucose, 2 mM CaCl2). The samples were then harvested in 100 μl of 10% SDS. 900 μl of Optiphase Supermix (PerkinElmer Life Sciences #1200-439) was added to each sample, and the cpm were measured using a 1450 MicroBeta JET for liquid scintillation (PerkinElmer Life Sciences/Wallac).

[3] = biological target: T1, recombinant human DHODH (Homo sapiens, UniProt Q02127); assay: DHODH enzymatic assay (kinetic, DCIP reduction); type: biochemical
T1 construct: made in house
Procedure: Enzyme assays were performed with 6 nM recombinant human DHODH prepared as described ([36]). The reaction mixture for these kinetic assays consisted of 1 mM DHO, 100 μM 2,3-dimethoxy-5-methyl-p-benzoquinone (Sigma–Aldrich #D9150), and 100 μM 2,6-dichlorophenolindophenol sodium salt (DCIP; Sigma–Aldrich #D1878) in enzyme buffer (50 mM Tris-HCl pH 8.0, 0.1% Triton X-100, 150 mM KCl). A stock solution of 20 mM DCIP was prepared in enzyme buffer and filtered through filter paper (20−25-μm pore size) just before use. Loss in absorbance by DCIP was measured at 595 nm at room temperature in a stepped time course (8 × 2 min, 8 × 3 min, 6 × 5 min). The observed decrease in absorbance over time was linear between 8 and 26 min. Therefore, for each concentration of inhibitor tested, a value for DHODH's Vmax was estimated by linear regression within this time frame. The IC50 is defined as the concentration of inhibitor that gives Vmax([I]) = Vmax(DMSO)/2.

[4] = system: ARN8 cells; assay: SRB assay in ARN8 cells with nucleotide supplementation; type: cell-based, human; conditions: 72 h, 100 μM uridine, 1 mM DHO or 1 mM OA
Procedure: Cells were seeded in a 96-well plate at a density of 500 cells/well (ARN8) in a volume of 100 μl of fully supplemented growth medium and incubated as described above for 24 h. SKNSH p53 WT pCMV neo cells were seeded at 7500 cells/well in 100 μl of fully supplemented growth medium and incubated as described above for 24 h. SKNSH ddp53 cells were seeded at a density of 6000 cells/well in 100 μl of fully supplemented growth medium and incubated as described above for 24 h. Cells were checked for adherence and treated with tenovins in DMSO supplemented with 100 μM uridine, 1 mM DHO, or 1 mM OA. The final percentage of DMSO per well was <0.2%. Cells were incubated for 72 h with compounds. Following incubation, medium was removed from the cells and replaced by 150 μl of 1× sterile PBS and 50 μl of 40% (w/v) TCA (Sigma–Aldrich #T9159) in distilled H2O and incubated at 4 °C for 1 h to fix the cells. The plate was then washed with three changes of water with all liquid allowed to drain from the plate. 50 μl of 0.4% (w/v) sulforhodamine B (Sigma–Aldrich #230162) with 1% (v/v) acetic acid (Sigma–Aldrich #320099) in H2O was added to each well and incubated for 30 min. Excess dye was washed out with three changes of 1% (v/v) acetic acid in H2O. The remaining dye was solubilized in 100 μl of 10 mM unbuffered Tris-base (Sigma–Aldrich #93362) per well, and absorbance was read at 490 nm on a spectrophotometer.

[5] = system: p53, hdm2 and p21 in ARN8 cells; assay: Western blotting of p53 and p53 targets in ARN8 cells; type: cell-based, human; conditions: 5 μM; for Treatment time at which p53 protein levels increased: blotted at 2, 4, 6 or 8 h; for Effect of OA and uridine on p53 protein and downstream signaling (hdm2, p21): 24 h, 100 μM uridine or 1 mM OA
Procedure: 150,000 ARN8, HCT116 p53 WT, or HCT116 p53 KO cells were seeded on 6-well plates in 2 ml of fully supplemented medium as described above. […] A protein assay was conducted using the Bio-Rad DC protein analysis kit (Bio-Rad #5000111), and the protein levels were normalized between samples. […] The transfer was conducted using the Trans-Blot Turbo preset program for standard semidry transfer (30 min). All membranes were blocked in 5% milk (w/v) in PBS-T containing 0.1% Tween 20 (v/v) (Sigma–Aldrich P9416). All antibodies were made up in 5% milk (w/v) in PBS-T. All antibody incubations were either overnight at 4 °C or at room temperature for 1 h. […] All secondary antibodies were polyclonal rabbit anti-mouse antibodies conjugated to horseradish peroxidase (DAKO, Glostrup, Denmark #P0260) and diluted at concentrations of 1:2000 (v/v). […] All blots were normalized to their respective vehicle control and quantified using ImageLab where quantification was required (Bio-Rad version 5.2.1 build 11).

[6] = system: p53 transcriptional activity in ARN8 cells; assay: p53 transcriptional activation (CPRG) cell reporter assay; type: cell-based, human; conditions: 18 h, 100 μM uridine, 1 mM DHO or 1 mM OA
Procedure: ARN8 cells were seeded in a 96-well plate at a density of 20,000 cells/well in a volume of 100 μl of fully supplemented growth medium. […] Subsequently, 50 μl of 1× reporter lysis buffer (Promega #E4030) was added to each well, and the plates were stored at –20 °C for at least 2 h.

[7] = system: HCT116 p53 WT and p53 KO cells; assay: IncuCyte cell confluence measurements; type: cell-based, human; conditions: HCT116 p53 WT or KO, 5 μM, confluence over 72 h
Procedure: ARN8 or HCT116 p53 WT or KO cells were seeded in a 96-well plate at a density of 4000 cells/well in a volume of 100 μl. […] The medium of the assigned wells was replaced with 100 μl of fresh medium containing a 5 μM concentration of the corresponding Tenovins or DMSO control and placed in an IncuCyte S3 system located inside a CO2 incubator.

[8] = biological target: T1, recombinant human DHODH; assay: Thermal shift assay using intrinsic FMN fluorescence; type: binding; conditions: 200 μM compound, 5 μM DHODH
Procedure: 5 μM recombinant human DHODH prepared as described ([36]) was used in this assay. The assay relied upon the intrinsic fluorescence of the embedded flavin mononucleotide (FMN) within the DHODH as a proxy for unfolding of DHODH across a temperature range, much in the same manner as the thermal shift assay using SYPRO Orange ([37]). A PCR machine with a filter set with an excitation range of 475–500 nm and an emission range of 520–590 nm was used for this experiment. 5 μM DHODH was prepared with 200 μM compound with a final concentration of 0.5% DMSO in each sample in buffer consisting of 50 mM HEPES and 150 mM NaCl. The final assay volume was 10 μl. The samples were heated across a temperature range with the fluorescence emission from FMN monitored at each temperature.

[9] = 6 nM recombinant human DHODH, average of three independent repeats, read-out: DHODH inhibition (enzyme assay), IC50

T1 sequence (Q02127 whole entry): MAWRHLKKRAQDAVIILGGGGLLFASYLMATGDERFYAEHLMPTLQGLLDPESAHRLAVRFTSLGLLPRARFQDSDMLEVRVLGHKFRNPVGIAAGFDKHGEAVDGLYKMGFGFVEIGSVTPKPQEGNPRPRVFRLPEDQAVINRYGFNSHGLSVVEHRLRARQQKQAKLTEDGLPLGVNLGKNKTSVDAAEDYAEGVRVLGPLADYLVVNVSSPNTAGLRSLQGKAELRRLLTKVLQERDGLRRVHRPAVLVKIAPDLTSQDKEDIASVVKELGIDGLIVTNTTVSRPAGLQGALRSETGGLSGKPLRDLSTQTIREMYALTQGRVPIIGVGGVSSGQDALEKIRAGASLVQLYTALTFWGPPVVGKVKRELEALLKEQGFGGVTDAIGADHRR

SMILES	Effect on cell cycle distribution / cell death [1]	Inhibition of uridine uptake after 15 min [2]	Effect of uridine or OA on the compound's cell cycle effect [1]	IC50 [3, 9]	IC50 ([3]; enzyme assay, read-out: DHODH IC50)	Effect of supplementation on tumor cell growth inhibition (SRB) [4]	Treatment time at which p53 protein levels increased [5]	Effect of OA and uridine on p53 protein and downstream signaling (hdm2, p21) [5]	Effect of supplementation on induction of p53 transcriptional activity [6]	Effect on cell growth in p53 KO versus p53 WT cells [7]	Inhibition of DHODH enzyme activity (in words) ([3]; biochemical assay)	Stabilization of DHODH in thermal shift assay [8]
Cc1c(-c2ccc(-c3ccccc3F)cc2)nc2ccc(F)cc2c1C(=O)O [brequinar, reference compound]	increase in the percentage of cells in S-phase	–	–	–	–	–	–	–	–	–	–	–
CC(=O)Nc1ccc(NC(=S)NC(=O)c2ccc(C(C)(C)C)cc2)cc1 [Tenovin 1]	increase in cell death	unable to alter uridine uptake	effect on the cell cycle largely prevented	113 nM	~113 nM	reduced upon supplementation with uridine or OA	–	–	–	–	–	–
CN(C)CCCCC(=O)Nc1ccc(NC(=S)NC(=O)c2ccc(C(C)(C)C)cc2)cc1 [Tenovin 6]	–	able to inhibit uridine uptake	–	500 nM	–	no rescue of cell viability	2 h	ablation of p53 downstream signaling	partially ablated	effects on cell growth ablated in the p53 KO cells	–	–
CN(C)CCCCC(=O)Nc1ccc(NC(=O)NC(=O)c2ccc(C(C)(C)C)cc2)cc1 [Tenovin 33]	increase in the percentage of cells in S-phase	able to inhibit uridine uptake	effect on the cell cycle largely prevented	> 20000 nM	–	reduced upon supplementation with uridine or OA	8 h	ablation of p53 downstream signaling	completely ablated	–	incapable of inhibiting DHODH enzyme activity	nor was it able to stabilize DHODH in a thermal shift assay

From publication PMC7939445, “Exploitation of dihydroorotate dehydrogenase (DHODH) and p53 activation as therapeutic targets: A case study in polypharmacology” (The Journal of Biological Chemistry, 2021)
